Source: ChEMBL document CHEMBL5352452, “Design, synthesis and pharmacological evaluation of β-carboline derivatives as potential antitumor agent via targeting autophagy” (Eur J Med Chem, 2023)

Key:
Type in all cases: functional, cell-based
[1] = tested on: BGC-823; assay: Antiproliferative activity against human BGC-823 cells assessed as inhibition of cell growth measured after 48 hrs by MTT assay; settings: BGC-823, 48 h
[2] = tested on: CWR22R; assay: Antiproliferative activity against human 22Rv1 cells assessed as inhibition of cell growth measured after 48 hrs by MTT assay; settings: 22Rv1, 48 h
[3] = tested on: HT-29; assay: Antiproliferative activity against human HT-29 cells assessed as inhibition of cell growth measured after 48 hrs by MTT assay; settings: HT-29, 48 h
[4] = tested on: ECa-109 cell line; assay: Antiproliferative activity against human Eca-109 cells assessed as inhibition of cell growth measured after 48 hrs by MTT assay; settings: ECa-109, 48 h
[5] = tested on: KB; assay: Antiproliferative activity against human KB cells assessed as inhibition of cell growth measured after 48 hrs by MTT assay
[6] = tested on: MCF7; assay: Antiproliferative activity against human MCF7 cells assessed as inhibition of cell growth measured after 48 hrs by MTT assay; settings: MCF7, 48 h
[7] = tested on: A-375; assay: Antiproliferative activity against human A-375 cells assessed as inhibition of cell growth measured after 48 hrs by MTT assay; settings: A-375, 48 h
[8] = tested on: 786-0; assay: Antiproliferative activity against human 786-0 cells assessed as inhibition of cell growth measured after 48 hrs by MTT assay; settings: 786-0, 48 h
[9] = tested on: SK-OV-3; assay: Antiproliferative activity against human SK-OV-3 cells assessed as inhibition of cell growth measured after 48 hrs by MTT assay; settings: SK-OV-3, 48 h
[10] = Antiproliferative activity against human BIU-87 cells assessed as inhibition of cell growth measured after 48 hrs by MTT assay; settings: BIU87, 48 h

Work on `CN1CCN(Cc2cc3c4ccccc4n(Cc4ccc(F)cc4)c3c(CN3CCN(C)CC3)n2)CC1` yielded an IC50 [1] of 48.7 µM, an IC50 [2] of 5.62 µM and an IC50 [3] of 5.98 µM. For the same compound, the IC50 [4] was 9.87 µM, the IC50 [5] was 28.6 µM and the IC50 [6] was 36.4 µM. It also gave an IC50 [7] of 16.8 µM, an IC50 [8] of 2.68 µM and an IC50 [9] of 8.72 µM. It also gave an IC50 [10] of 16.9 µM.

In the case of `CCCCn1c2ccccc2c2cc(CN3CCN(C)CC3)nc(CN3CCN(C)CC3)c21`, the IC50 [1] is reported as 98.5 µM, the IC50 [2] is reported as 4.63 µM and the IC50 [3] is reported as 11 µM. The IC50 [4] was 25.6 µM, the IC50 [5] was 34.8 µM and the IC50 [6] was 50.2 µM. For the same compound, the IC50 [7] was 17.2 µM, the IC50 [8] was 2.32 µM and the IC50 [9] was 27.3 µM. For the same compound, the IC50 [10] was 23.9 µM.

With `CN1CCN(Cc2cc3c([nH]c4ccccc43)c(CN3CCN(C)CC3)n2)CC1` the IC50 [1] was > 100 µM, the IC50 [2] was > 100 µM and the IC50 [3] was 83.3 µM. For the same compound, the IC50 [4] was > 100 µM, the IC50 [5] was > 100 µM and the IC50 [6] was > 100 µM. The IC50 [7] was > 100 µM, the IC50 [8] was 28.4 µM and the IC50 [9] was > 100 µM. For the same compound, the IC50 [10] was > 100 µM.

`CN1CCN(Cc2cc3c4ccccc4n(Cc4ccccc4)c3c(CN3CCN(C)CC3)n2)CC1` gave an IC50 [1] of 58.3 µM, an IC50 [2] of 6.47 µM and an IC50 [3] of 6.42 µM. The IC50 [4] was 16.8 µM, the IC50 [5] was 24.2 µM and the IC50 [6] was 27.5 µM. The IC50 [7] was 13.6 µM, the IC50 [8] was 2.36 µM and the IC50 [9] was 15.6 µM. The IC50 [10] was 15.5 µM.

For `CN1CCN(Cc2cc3c4ccccc4n(C)c3c(CN3CCN(C)CC3)n2)CC1`, the IC50 [1] was > 100 µM, the IC50 [2] was > 100 µM and the IC50 [3] was 46.8 µM. The IC50 [4] was > 100 µM, the IC50 [5] was > 100 µM and the IC50 [6] was > 100 µM. It also gave an IC50 [7] of 85.9 µM, an IC50 [8] of 13.4 µM and an IC50 [9] of 93.5 µM. The IC50 [10] was > 100 µM.

With `CN1CCN(Cc2cc3c4ccccc4n(Cc4cccc(Cl)c4)c3c(CN3CCN(C)CC3)n2)CC1` the IC50 [1] was 36.8 µM, the IC50 [2] was 4.93 µM and the IC50 [3] was 5.68 µM. It also gave an IC50 [4] of 11.3 µM, an IC50 [5] of 15.6 µM and an IC50 [6] of 15.8 µM. The IC50 [7] was 12 µM, the IC50 [8] was 3.21 µM and the IC50 [9] was 4.62 µM. It also gave an IC50 [10] of 8.01 µM.
